Reference: patent US12377069B2, “Compounds, compositions, methods of using, and methods for preparing compounds” (UNIVERSITY OF LOUISVILLE RESEARCH FOUNDATION, INC., priority 2018, dated 2025)

Key:
[1] = test system: MRP2; assay: MRP2 expression in 5FU-R colon cancer cells; assay type: cell-based; details: SW-5FUR colon cancer cell lines
Protocol: FIG. 43: UroA/UAS03 down regulate drug transporters. (A) Expression of MRP2 is measured by real time PCR upon treating with indicated doses of UroA or UAS03 in SW-5FUR colon cancer cell lines. (B) MRP2 activity is measured using CDCFDA (diacetate ester of 5(6)-carboxy-2′,7′-dichlorofluorescein) transporter assay in SW-FUR colon cancer cell lines upon treating with UroA/USA03.
This could result in increase in intracellular drug concentration leading to increase in cell death/decreased proliferation of drug resistant cancer cells upon treatment with 5FU and UroA/UAS03.

[2] = test system: Nrf2; assay: Nrf2 expression, nuclear translocation and target genes; assay type: cell-based, human; details: for NQO1 expression in HT29 cells: 50 μM; for Nrf2 mRNA and protein levels / Nrf2 nuclear translocation: HT29, 50 μM; for Nrf2 nuclear translocation: 6 h
Protocol: Real time PCR: Total RNA was isolated from cells/tissue using Maxwell® 16 LEV simplyRNA tissue kit (Promega) and reverse transcribed with TaqManC Reverse transcription Kit (Applied Biosystems, CA, USA). The transcribed cDNA (after dilution) was mixed with 100 nM gene specific primers (Real time primers LLC) and 1×SYBR green reaction mix (Power SYBR® Green PCR Master Mix; Applied Biosystems, CA, USA). Changes in gene expression was analyzed using CFX96™ Real-Time System (Bio Rad) and fold change in expression was calculated using 2^ΔΔCT method using GAPDH/0-actin as house keeping gene and normalized with untreated control.
Immunoblots (Western blots): The total protein lysates were collected either from colon tissue/cells using radioimmunoprecipitation assay (RIPA) buffer (Sigma-Aldrich, USA) and quantified using BCA protein quantification kit (Thermo Scientific) as per instructional manual. Total protein (20-50 μg) of was resolved on NuPAGE™ 4-12% Bis-Tris gel (Novex Life technologies) and transferred to polyvinylidene difluoride membrane (0.22 μm pore; Millipore, USA). After blocking with 5% (w/v) skim milk powder (containing 1×TBS) for 1 h, the membrane was then incubated with respective antibodies at 4° C. overnight (dilutions of respective antibodies is given in Table A1). Next day, respective secondary antibody conjugated with Horseradish peroxidase were probed and the chemiluminescent substrate was used to detect the protein bands (ImageQuant LAS 4000). Densitometry analysis of bands were done using ImageJ software. Antibodies for Cldn4, Ocln, Cldn1, Cyp1A1, AhR, HO1, NQO1, Keap1, β-actin and Lamin B were purchased from Santa Cruz Biotechnologies (USA) and Nrf2 from Novus Biologicals (USA).
Confocal Imaging: HT29 or CaCo2 or BMDM cells (50,000 cells/well) were plated on to 8-well chambered slides (154534PK; ThermoFisher Scientific) allowed them to grow overnight. The cells were induced with vehicle (0.01% DMSO) or UroA (50 μM) or UAS03 (50 μM) for desired time points and fixed with cold methonol. The AhR or Nrf2 or Cldn4 stained with respective antibodies (1:200 dilution) followed by fluorecently labelled (Alexa flour 594 for AhR and Alexa flour 488 for Nrf2 and Cldn4) secondary ab (1:500 dilution; ThermoFisher Scientific). The nucleus was stained with DAPI (Sigma Aldrich). The confocal images were captured using Nikon AIR confocal microscope using 60× magnification lense with appropriate laser channels.

[3] = test system: Cyp1A1; assay: Cyp1A1 enzyme activity in colon and liver microsomes of treated mice; assay type: in vivo, mouse; details: 1 week; for Cyp1A1 activity in colon tissues compared to BNF and FICZ treated mice: UroA/UAS03 oral 20 mg/kg/day, FICZ i.p.; for Cyp1A1 activity increase in colons: i.p., UroA/UAS03 5 mg/kg/day, FICZ 1 μg/mouse/day; for Cyp1A1 activity in colon and liver, AhR^−/− mice / Cyp1A1 activity in colon and liver, wild type mice: oral 20 mg/kg, EROD
Protocol: Measurements of Cyp1A1 enzyme activity (Ex vivo): Mice were treated with Vehicle or UroA or UAS03, BNF or FICZ daily for one week at indicated concentration either through oral or i.p. route. After one week, mice were euthanized and the colon and liver tissues were dissected. Microsomes from these tissues were prepared using the following procedure (SINGH et al., (2013) “Evaluation of memory enhancing clinically available standardized extract of Bacopa monniera on P-glycoprotein and cytochrome P450 3A in Sprague-Dawley rats” PloS one, Vol. 8, Article e72517). For hepatic microsomes, liver was first perfused with 0.9% sodium chloride solution and excised out. Adhering blood and saline was removed by blotting on tissue paper and tissue was homogenized in tissue homogenization buffer (50 mM Tris-HCl, pH 7.4 with 250 mM sucrose). Homogenate was centrifuged at 10,000×g for 30 minutes at 4° C. supernatant obtained was further centrifuged at 105,000×g for 60 minutes at 4° C. The pellet was washed with homogenization buffer and centrifuged again at 105,000×g for 60 minutes at 4° C. The pellet was suspended in homogenization buffer and used for protein and CYP assay. For intestinal microsome preparation, intestine was removed and washed with 0.9% sodium chloride. The intestine was longitudinally cut open to expose mucosal layer and mucosa was scrapped with help of glass slide. The scraped tissue was collected in homogenization buffer (50 mM Tris-HCl buffer containing glycerol (20% v/v), protease inhibitor (1%) and heparin (3 U/ml)). This suspended mucosa was homogenized and centrifuged at 10,000×g for 20 minutes at 4° C. Supernatant obtained was further centrifuged at 105,000×g for 60 minutes at 4° C. The pellet was washed with buffer and centrifuged again at 105,000×g for 60 minutes at 4° C. The pellet was suspended homogenization buffer and used for protein and CYP enzymes assays.
Ethoxyresorufin-O-deethylase (EROD) assay: The microsomal proteins (0.5 mg) were mixed with 200 μL Tris buffer (0.1 M, pH 7.4) containing ethoxyresorufin (0.01 mM). To start reaction, NADPH (0.1 mM) was added and incubated at 37° C. for 10 min. After 10 min, reaction was terminated by adding equal volume of acetonitrile and reaction mixture was centrifuged at 13000×g for 10 min at 4° C. Supernatant was used to determine resorufin by measuring fluorescence (Ex. 530 nm, Em. 580 nm). Pure resorufin (Sigma Aldrich) was used to generate standard curve.
P450-Glo Cyp1A1 luminiscence assay: The above microsomes (20 μg) were used for P450-Glo Cyp1A1 luminiscence assays as per manufacturer's instructions.

Row | SMILES | expression of drug transporters (MRP2) [1] | NQO1 expression in HT29 cells [2] | Nrf2 mRNA and protein levels [2] | Nrf2 nuclear translocation [2] | Cyp1A1 activity in colon tissues compared to BNF and FICZ treated mice [3] | Cyp1A1 activity increase in colons [3] | Cyp1A1 activity in colon and liver, AhR^−/− mice [3] | Cyp1A1 activity in colon and liver, wild type mice [3]
1 | Oc1ccc2c(c1)COc1cc(O)ccc1-2 [UAS03, 6H-benzo[c]chromene-3,8-diol] | reduce the expression | induced NQO1 expression | upregulated Nrf2 | induced its nuclear translocation | relatively more Cyp1A1 activity in colon tissues | ~3 fold | but not in AhR^−/− mice | activated Cyp1A1 activity
2 | O=c1oc2cc(O)ccc2c2ccc(O)cc12 [UroA, 3,8-dihydroxy-6H-dibenzo[b,d]pyran-6-one] | reduce the expression | induced NQO1 expression | upregulated Nrf2 | induced its nuclear translocation | relatively more Cyp1A1 activity in colon tissues | ~3 fold | but not in AhR^−/− mice | activated Cyp1A1 activity
